Patent US10131652B2, “Pyrimidinyloxy benzene derivatives as herbicides” (E. I. DU PONT DE NEMOURS AND COMPANY, priority 2014, dated 2018)

Experiments:
Type in all cases: in vivo
[1] = tested on: barnyardgrass (Echinochloa crus-galli); assay: Test C flooded paddy test plant response; conditions: Flood, 250 g ai/ha; scale of 0 to 100 where 0 is no effect and 100 is complete control; 13 to 15 days
Method in brief: (§1)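 Readout is a visual 0–100 score (100 = complete control) versus controls at 13–15 days. Plants at 2-leaf stage, flooded to 3 cm, treated through paddy water.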

[2] = tested on: ducksalad (Heteranthera limosa); assay: Test C flooded paddy test plant response; conditions: Flood, 250 g ai/ha; scale of 0 to 100 where 0 is no effect and 100 is complete control; 13 to 15 days
Method in brief: as §1

[3] = tested on: rice (Oryza sativa); assay: Test C flooded paddy test plant response; conditions: Flood, 250 g ai/ha; scale of 0 to 100 where 0 is no effect and 100 is complete control; 13 to 15 days
Method in brief: as §1

[4] = tested on: small-flower umbrella sedge (Cyperus difformis); assay: Test C flooded paddy test plant response; conditions: Flood, 250 g ai/ha; scale of 0 to 100 where 0 is no effect and 100 is complete control; 13 to 15 days
Method in brief: as §1

[5] = tested on: johnsongrass (Sorghum halepense); assay: Test D pre-/postemergence plant response; conditions: Postemergence
Method in brief: (§2)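 Ratings were visual, 0 = no effect to 100 = complete control, taken against untreated controls after 13 to 15 days in a greenhouse. Chemicals, formulated in non-phytotoxic surfactant-containing solvent, went onto soil (loam/sand) at planting for preemergence, or onto 1- to 4-leaf plants (2–18 cm) for postemergence.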

[6] = tested on: large (Lg) crabgrass (Digitaria sanguinalis); assay: Test D pre-/postemergence plant response; conditions: Postemergence
Method in brief: as §2

[7] = tested on: oilseed rape (Brassica napus); assay: Test D pre-/postemergence plant response; conditions: Postemergence
Method in brief: as §2

[8] = tested on: soybean (Glycine max); assay: Test D pre-/postemergence plant response; conditions: Postemergence
Method in brief: as §2

[9] = tested on: velvetleaf (Abutilon theophrasti); assay: Test D pre-/postemergence plant response; conditions: Postemergence
Method in brief: as §2

[10] = tested on: winter wheat (Triticum aestivum); assay: Test D pre-/postemergence plant response; conditions: Postemergence
Method in brief: as §2

[11] = tested on: yellow nutsedge (Cyperus esculentus); assay: Test D pre-/postemergence plant response; conditions: Postemergence
Method in brief: as §2

[12] = tested on: chickweed (common chickweed, Stellaria media); assay: Test D postemergence plant response
Method in brief: (§3)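 Visual 0–100 rating vs controls (0 = no effect, 100 = complete control), scored 13–15 d after postemergence spray. Plants 1- to 4-leaf stage (2–18 cm), potted in peat/vermiculite mix, kept in greenhouse.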

[13] = tested on: kochia (Kochia scoparia); assay: Test D postemergence plant response
Method in brief: as §3

[14] = tested on: wild oat (Avena fatua); assay: Test D postemergence plant response
Method in brief: as §3

[15] = 31 g ai/ha, scale 0 to 100 (0 no effect, 100 complete control)
[16] = 62 g ai/ha, scale 0 to 100, 0 no effect, 100 complete control
[17] = 125 g ai/ha, scale 0 to 100, 0 no effect, 100 complete control

Cc1cc(-c2c(F)cccc2Oc2ncc(Br)cn2)on1 [Compound 230]
Barnyardgrass plant response rating [1]: 40 | Ducksalad plant response rating [2]: 85 | Rice plant response rating [3]: 20 | Sedge, Umbrella plant response rating [4]: 85 | Plant response rating (scale 0 to 100), Johnsongrass ([5]; 16 g ai/ha): 0 | Johnsongrass plant response rating [5, 15]: 0 | Johnsongrass plant response rating [5, 16]: 5 | Plant response rating, Johnsongrass [5, 17]: 5 | Plant response rating (scale 0 to 100), Crabgrass, Large ([6]; 16 g ai/ha): 0 | Crabgrass, Large plant response rating [6, 15]: 5 | Crabgrass, Large plant response rating [6, 16]: 5 | Plant response rating, Crabgrass, Large [6, 17]: 10 | Plant response rating (scale 0 to 100), Oilseed Rape ([7]; 16 g ai/ha): 50 | Oilseed Rape plant response rating [7, 15]: 60 | Oilseed Rape plant response rating [7, 16]: 75 | Plant response rating, Oilseed Rape [7, 17]: 75 | Plant response rating (scale 0 to 100), Soybean ([8]; 16 g ai/ha): 50 | Soybean plant response rating [8, 15]: 55 | Soybean plant response rating [8, 16]: 65 | Plant response rating, Soybean [8, 17]: 85 | Plant response rating (scale 0 to 100), Velvetleaf ([9]; 16 g ai/ha): 25 | Velvetleaf plant response rating [9, 15]: 40 | Velvetleaf plant response rating [9, 16]: 55 | Plant response rating, Velvetleaf [9, 17]: 65 | Plant response rating (scale 0 to 100), Wheat ([10]; 16 g ai/ha): 5 | Wheat plant response rating [10, 15]: 5 | Wheat plant response rating [10, 16]: 5 | Plant response rating, Wheat [10, 17]: 15 | Plant response rating (scale 0 to 100), Nutsedge, Yellow ([11]; 16 g ai/ha): 0 | Nutsedge, Yellow plant response rating [11, 15]: 0 | Nutsedge, Yellow plant response rating [11, 16]: 5 | Plant response rating, Nutsedge, Yellow [11, 17]: 5 | Plant response rating (scale 0 to 100), Chickweed ([12]; 16 g ai/ha): 65 | Chickweed plant response rating [12, 15]: 65 | Chickweed plant response rating [12, 16]: 75 | Plant response rating, Chickweed [12, 17]: 80 | Plant response rating (scale 0 to 100), Kochia ([13]; 16 g ai/ha): 65 | Kochia plant response rating [13, 15]: 85 | Kochia plant response rating [13, 16]: 100 | Plant response rating, Kochia [13, 17]: 100 | Plant response rating (scale 0 to 100), Oat, Wild ([14]; 16 g ai/ha): 0 | Oat, Wild plant response rating [14, 15]: 0 | Oat, Wild plant response rating [14, 16]: 5 | Plant response rating, Oat, Wild [14, 17]: 10
